{
  "source": "patent EP4470537A1",
  "about": "“COMPOUND FOR USE IN TREATING FIBRODYSPLASIA OSSIFICANS PROGRESSIVA (FOP)” (Queen's University At Kingston, priority 2023, dated 2024)",
  "key": {"[1]": {"test_system": "RAR", "experiment": "RAR transcriptional activation assay (RARE-luc MCF-7 cells)", "format": "cell-based", "conditions": "0.1 nM to 10 µM, 24 hours of treatment", "description": "This retinoid transcriptional activity assay measures the ability of a test compound to induce expression of a RA-sensitive reporter construct. This assay utilizes MCF-7 cells stably transduced with a gene construct comprising 4 tandem RA-response elements linked to a promoter driving transcriptional expression of the firefly luciferase encoding mRNA (RARE-luc). This construct serves as a sensitive reporter of retinoid-like activity.\nRARE-luc transduced MCF-7 cells were maintained in a RPMI-1640 medium containing 10% FBS. Cells were grown in 96-well plates, and treated with the test compound diluted in DMSO in duplicate at 0.1 nM, 1 nM, 10 nM, 100 nM, 1 µM and 10 µM final concentrations. As a positive control for reporter activation, cells were also treated with RA diluted in DMSO at the same concentrations. DMSO treatment alone served as a negative control. After 24 hours of treatment, cells were harvested lysis buffer (Molecular Devices, San Jose, USA) and luciferase activity in cell lysates were read using a luminometer."}, "[2]": {"test_system": "heterotopic ossification", "experiment": "Surgical mouse model of heterotopic ossification (rhBMP2 collagen disk implant)", "format": "in vivo", "quoted_text": "Disks were impregnated with 1µg total of recombinant human BMP-2 (GenScript, Piscataway, NJ, USA, catalog #Z02913, lot #P50031712) on the day of surgery (5µl of 200ng/µL BMP-2, reconstituted in 20mM acetic acid solution). The rhBMP2-soaked collagen disk was surgically implanted into a small pocket made in the left gastrocnemius muscle of a 6-8 week-old male CD-1 mouse.\nAt the study endpoint (Day 14: 16-30 hours after final compound treatment) left hindlimbs were removed and submitted to micro-CT (micro-computed tomography) imaging.\nCT images were acquired using a VECTor^4CT pre-clinical scanner (MILabs B.V., Utrecht, Netherlands) equipped with a cone beam X-ray CT system. Scans were carried out with an acceleration voltage of 50 kVp and an X-ray tube current of 430 µA in accurate focus mode to obtain 3600 projections over a 360° scan. […] CT images were consequently processed using MILabs reconstruction software implementing a voxel size of 20 µm and a Hann projection filter of 25 µm to generate 3-dimensional CT images. For quantification, CT images were converted to DICOM® files using PMOD 3.9 software (PMOD Technologies Ltd., Zurich, Switzerland) for rendering using RadiAnt DICOM Viewer 4.2 software (Medixant, Poznań, Poland). The region-of-interest for all hindlimbs, reconstructed from DICOM files, was defined by outlining sites of ectopic ossification. Analysis of total ectopic bone volume was conducted via automated processes using the AnalyzePro software with the Bone Microarchitecture Analysis (BMA) add-on (AnalyzeDirect, Overland Park, Kansas)."}, "[3]": {"test_system": "growth plates", "experiment": "Long bone growth and growth plate toxicity in juvenile FVB mice", "conditions": "mouse, in vivo", "description": "For both palovarotene and compound 1 efficacy and toxicity were correlated to the pharmacokinetic parameters AUC (area under the curve), Cmax (maximum concentration detected following compound administration), and duration above EC50/IC50.This illustrated that efficacy was best predicted by duration above the EC50/IC50 (effective concentration for 50% response (in the case of palovarotene), or for 50% inhibition (in the case of compound 1)), whereas toxicity was best predicted by Cmax. […] For palovarotene, efficacy data from Example 7 and toxicity data from Example 8 above were compiled with mined data from the following publications: • Lindborg et al (2018). \"Cartilage-derived retinoic acid-sensitive protein (CD-RAP): A stage-specific biomarker of heterotopic endochondral ossification (HEO) in fibrodysplasia ossificans progressiva (FOP).\" Bone 109: 153-157. • Chakkalakal, S. A., et al. (2016). \"Palovarotene Inhibits Heterotopic Ossification and Maintains Limb Mobility and Growth in Mice With the Human ACVR1(R206H) Fibrodysplasia Ossificans Progressiva (FOP) Mutation.\" J Bone Miner Res 31(9): 1666-1675. • Inubushi, T., et al. (2018). \"Palovarotene Inhibits Osteochondroma Formation in a Mouse Model of Multiple Hereditary Exostoses.\" J Bone Miner Res 33(4): 658-666. • Lees-Shepard, J. B., et al. (2018). […]"}, "[4]": {"test_system": "ectopic bone formation", "experiment": "Genetic model of FOP (pinch injury, Acvr1 cR206H/+;Pdgfra-Cre+ mice)", "format": "in vivo, mouse", "conditions": "for Mean ectopic bone volume D14 / percent change from vehicle (D14): day 14; for Mean ectopic bone volume D22 / percent change from vehicle (D22): day 22", "description": "Acvr1^(cR206H/+) mice were obtained from the International Fibrodysplasia Ossificans Progressiva Association (IFOPA, North Kansas City, MO, USA). These animals harbour a Cre recombinase-inducible Acvr1 transgenic allele, which causes a switch from wild-type mouse ACVR1 protein expression to that of a chimeric mouse/human protein containing the R206H mutation seen in >95% of FOP patients. These animals were intercrossed with Pdgfra-Cre expressing mice (C57BL/6-Tg(PDGFRA-cre)1Clc/J mice, available through The Jackson Laboratory, Bar Harbor, ME, USA) which activates Cre recombination in fibro-adipogenic precursors, currently believed to be the cells of origin for FOP (Lees-Shepard, J.B., et al (2018) Nat Commun 9, 471.). Resulting study animals (ACVR1^(R206H/+);Pdgfra-Cre+) are susceptible to injury-induced ectopic bone formation. These animals were subjected to a bilateral gastrocnemius pinch procedure under anaesthesia, whereby a Halsted-mosquito hemostat (product#13008-12, Fine Science Tools Inc., North Vancouver, BC, Canada) is used to compress the gastrocnemius muscle, at its widest part, to approximately 2mm for 5s, and then released. This injury elicits robust ectopic bone formation within 10-14 days (for description of procedure see, Lyu, H., et al. (2021). Biomedicines 9(6).). Animals began treatment with various doses of compound 1 (0.5 mg/kg BID, 1 mg/kg BID, 2 mg/kg BID, 4 mg/kg BID, 7.5 mg/kg BID and 10 mg/kg BID or 2 mg/kg QD and 10 mg/kg QD) or palovarotene (1.76 mg/kg QD or 0.88 mg/kg QD) or corn oil vehicle on the day following the procedure for 21 days. Micro-CT imaging was performed on day 14 (under anaesthesia) and at study termination (day 22), as outlined above in Example 7. Sites of ectopic bone formation in the area of the injury were volumetrically quantified using Class stratification in Imalytics Preclinical software (version 3.0.2.3, Gremse-IT GmbH, Aachen, Germany) from DICOM renderings. Using this model, the utility of compound 1 in inhibiting bone formation in a genetic mouse model of FOP was illustrated (see Figure 11 and Table 3 below). […]"}},
  "data": [
    {"smiles": "CC(C)(C)c1cccc(-c2cc3cc(/C=C/C(=O)O)ccc3[nH]2)c1", "note": "[compound 1, (E)-3-(2-(3-(tert-butyl)phenyl)-1H-indol-5-yl)acrylic acid]", "values": [
      {"measurement": "luciferase activity", "setting": "[1]", "result": "did not induce luciferase activity significantly"},
      {"measurement": "ectopic bone formation", "setting": "[2]; result in words, 2 to 18 mg/kg QD or BID, 14 days, micro-CT", "result": "dose-dependent decrease in ectopic bone formation from vehicle"},
      {"measurement": "disturbances to the growth of long bones and microarchitecture of the growth plates", "setting": "[3]", "result": "not observed"},
      {"measurement": "Mean ectopic bone volume D14", "setting": "[4]; 0.5mg/kg BID", "result": "5.31 ± 6.65", "unit": "mm^3"},
      {"measurement": "percent change from vehicle (D14)", "setting": "[4]; 0.5mg/kg BID", "result": -51.9, "unit": "%"},
      {"measurement": "Mean ectopic bone volume D22", "setting": "[4]; 0.5mg/kg BID", "result": "4.01 ± 7.71", "unit": "mm^3"},
      {"measurement": "percent change from vehicle (D22)", "setting": "[4]; 0.5mg/kg BID", "result": -63.4, "unit": "%"},
      {"measurement": "Mean ectopic bone volume D14", "setting": "[4]; 1mg/kg BID", "result": "4.88 ± 6.79", "unit": "mm^3"},
      {"measurement": "percent change from vehicle (D14)", "setting": "[4]; 1mg/kg BID", "result": -55.8, "unit": "%"},
      {"measurement": "Mean ectopic bone volume D22", "setting": "[4]; 1mg/kg BID", "result": "5.50 ± 10.67", "unit": "mm^3"},
      {"measurement": "percent change from vehicle (D22)", "setting": "[4]; 1mg/kg BID", "result": -49.8, "unit": "%"},
      {"measurement": "Mean ectopic bone volume D14", "setting": "[4]; 2mg/kg BID", "result": "4.62 ± 5.80", "unit": "mm^3"},
      {"measurement": "percent change from vehicle (D14)", "setting": "[4]; 2mg/kg BID", "result": -58.1, "unit": "%"},
      {"measurement": "Mean ectopic bone volume D22", "setting": "[4]; 2mg/kg BID", "result": "5.08 ± 7.90", "unit": "mm^3"},
      {"measurement": "percent change from vehicle (D22)", "setting": "[4]; 2mg/kg BID", "result": -53.6, "unit": "%"},
      {"measurement": "Mean ectopic bone volume D14", "setting": "[4]; 2mg/kg QD", "result": "3.61 ± 4.98", "unit": "mm^3"},
      {"measurement": "percent change from vehicle (D14)", "setting": "[4]; 2mg/kg QD", "result": -67.3, "unit": "%"},
      {"measurement": "Mean ectopic bone volume D22", "setting": "[4]; 2mg/kg QD", "result": "1.77 ± 1.73", "unit": "mm^3"},
      {"measurement": "percent change from vehicle (D22)", "setting": "[4]; 2mg/kg QD", "result": -83.8, "unit": "%"},
      {"measurement": "Mean ectopic bone volume D14", "setting": "[4]; 4mg/kg BID", "result": "1.54 ± 2.85", "unit": "mm^3"},
      {"measurement": "percent change from vehicle (D14)", "setting": "[4]; 4mg/kg BID", "result": -86.1, "unit": "%"},
      {"measurement": "Mean ectopic bone volume D22", "setting": "[4]; 4mg/kg BID", "result": "2.65 ± 6.33", "unit": "mm^3"},
      {"measurement": "percent change from vehicle (D22)", "setting": "[4]; 4mg/kg BID", "result": -75.8, "unit": "%"},
      {"measurement": "Mean ectopic bone volume D14", "setting": "[4]; 7.5mg/kg BID", "result": "0.26 ± 0.42", "unit": "mm^3"},
      {"measurement": "percent change from vehicle (D14)", "setting": "[4]; 7.5mg/kg BID", "result": -97.6, "unit": "%"},
      {"measurement": "Mean ectopic bone volume D22", "setting": "[4]; 7.5mg/kg BID", "result": "0.06 ± 0.16", "unit": "mm^3"},
      {"measurement": "percent change from vehicle (D14)", "setting": "[4]; 10mg/kg BID", "result": -88.4, "unit": "%"},
      {"measurement": "percent change from vehicle (D22)", "setting": "[4]; 10mg/kg BID", "result": -87.2, "unit": "%"},
      {"measurement": "Mean ectopic bone volume D14", "setting": "[4]; 10mg/kg QD", "result": "1.56 ± 3.61", "unit": "mm^3"},
      {"measurement": "percent change from vehicle (D14)", "setting": "[4]; 10mg/kg QD", "result": -85.9, "unit": "%"},
      {"measurement": "Mean ectopic bone volume D22", "setting": "[4]; 10mg/kg QD", "result": "2.13 ± 6.10", "unit": "mm^3"},
      {"measurement": "percent change from vehicle (D22)", "setting": "[4]; 10mg/kg QD", "result": -80.6, "unit": "%"},
      {"measurement": "efficacy in inhibiting bone formation", "setting": "[4]; result in words, comparison with palovarotene", "result": "at least as efficacious as clinically relevant doses of palovarotene"}
    ]},
    {"smiles": "CC1(C)CCC(C)(C)c2cc(Cn3cccn3)c(/C=C/c3ccc(C(=O)O)cc3)cc21", "note": "[palovarotene, reference compound]", "values": [
      {"measurement": "percent change in HO volume from vehicle mean", "setting": "[2]; 0.88mg/kg, 13 days, Day 14", "result": "+2.5%"},
      {"measurement": "Mean ectopic bone volume D14", "setting": "[4]; 0.88mg/kg QD", "result": "2.42 ± 3.93", "unit": "mm^3"},
      {"measurement": "percent change from vehicle (D14)", "setting": "[4]; 0.88mg/kg QD", "result": -78.0, "unit": "%"},
      {"measurement": "Mean ectopic bone volume D22", "setting": "[4]; 0.88mg/kg QD", "result": "0.75 ± 0.97", "unit": "mm^3"},
      {"measurement": "percent change from vehicle (D22)", "setting": "[4]; 0.88mg/kg QD", "result": -93.2, "unit": "%"},
      {"measurement": "Mean ectopic bone volume D14", "setting": "[4]; 1.76mg/kg QD", "result": "1.54 ± 2.48", "unit": "mm^3"},
      {"measurement": "percent change from vehicle (D14)", "setting": "[4]; 1.76mg/kg QD", "result": -86.1, "unit": "%"},
      {"measurement": "Mean ectopic bone volume D22", "setting": "[4]; 1.76mg/kg QD", "result": "0.58 ± 0.96", "unit": "mm^3"},
      {"measurement": "percent change from vehicle (D22)", "setting": "[4]; 1.76mg/kg QD", "result": -94.7, "unit": "%"}
    ]}
  ]
}
